Here are results for three molecules from patent US11400019B2, “Sustained release drug delivery systems with reduced impurities and related methods” (DURECT CORPORATION, priority 2020, dated 2022).

Where “and” joins values, the source holds several entries; their conditions need not be identical. Equal values may be shown once.

Assay type in all cases: physicochemical
Series [1] is described as follows: Peroxide content of SAIB and benzyl alcohol versus bupivacaine N-oxide. As for the experimental part: The peroxide content for several lots of sucrose acetate isobutyrate were determined by potentiometric titration involving iodometric titration. The bupivacaine N-oxide levels in samples of Formulation A were determined using HPLC with UV detection.
The bupivacaine N-oxide data in Table 10.1 are for the longest available stability time points for each set of samples.
All of the benzyl alcohol compositions had peroxide values of less than […]. The peroxide value can be converted to peroxide content, expressed as hydrogen peroxide, by multiplying PV by 17. […] The maximum contribution to peroxide content from benzyl alcohol is 85 ppm divided by 3, or 28 ppm.

Series [2] in a line: In vitro cumulative release of bupivacaine, USP Apparatus II dissolution, f1/f2 comparison. As to conditions: pre-heated in oven at 225° C. for 4 hours. As for the experimental part:
The in vitro cumulative release of bupivacaine from formulations was determined as follows.
The bupivacaine formulations, other than the heat-stressed formulation, were prepared by dissolving appropriate amounts of bupivacaine in appropriate amounts of benzyl alcohol (BA), adding an appropriate amount of sucrose acetate isobutyrate (SAIB), and stirring not less than 45 minutes at about 35° C. For the heat-stressed SAIB formulation, the same process was followed except the SAIB was pre-heated in an oven at 225° C. for 4 hours before use. A portion of the pre-heated SAIB was tested and found to have 98% SAIB remaining.
Dissolution was measured using a USP Apparatus II. Approximately 0.5 mL of each formulation was loaded via cannula and syringed into 900 mL±5 mL of 37±0.5° C. dissolution media (phosphate buffer at pH 7.4±0.05 with 0.03% sodium lauryl sulfate). The USP Apparatus II was set at 50 RPM, and samples were collected at 1, 4, 8, 12, 18, 24, 36, 48, and 72 hours. The number of replicates (N) per sample per time point varied as described above. The collected samples were assayed for bupivacaine content by HPLC.
The dissolution profile comparisons were conducted using a difference factor (f1) and a similarity factor (f2) approach (FDA Guidance for Industry “Dissolution Testing of Immediate Release Solid Oral Dosage Forms” August 1997). […]

Series [3] can be described thus: Metal content by ICP-MS. As for the experimental part: Sucrose acetate isobutyrate was tested for metal content as follows. The sample was prepared with a 0.1 g weighed portion mixed with 2 mL nitric acid and 0.5 mL hydrochloric acid for 1 hour on a block digester set at 110° C. After cooling, 0.5 mL of 30% hydrogen peroxide was added, and the digestion resumed for 30 minutes (the material appeared dissolved). After cooling, internal standard solution was added and dilution with purified water to 20 g produced a solution for ICP-MS analysis.
Formulation A was compounded using steel compounding tanks. Silicone tubing was used to transfer Formulation A. Formulation A was filled into glass vials, which were then sealed with fluorocarbon-coated stoppers.
Formulation A was tested for metal content as follows. The sample was prepared with a 0.2 g weighed portion mixed with 2 mL nitric acid, 1 mL hydrochloric acid, and 1 mL hydrofluoric acid, then digested in a closed-vessel microwave system (the material appeared dissolved). After cooling, internal standard solution was added and dilution with purified water to 50 g produced a solution for ICP-MS analysis.

The nature of series [4]: 2,6-dimethylaniline standard in clear, amber and red glassware, HPLC with electrochemical detection. As for the experimental part:
A series of experiments was conducted examining the effects of amber and red colored glassware on the stability of the 2,6-dimethylaniline reference standard, using electrochemical detection, at a concentration of 3 ng/mL in an aqueous buffer/methanol solution.
In Experiment 1, the 2,6-dimethylaniline was prepared at a concentration of 3 ng/mL in a clear, colorless glass 100 mL volumetric flask. Aliquots were transferred into clear HPLC glass vials, and assayed against external standards. The 3 injections of the 2,6-dimethylaniline were consistently near 3 ng/mL.
In Experiment 2, the 2,6-dimethylaniline solution at 3 ng/mL prepared in a clear, colorless glass 100 mL volumetric flask was transferred to amber HPLC vials.
An aliquot was transferred into a clear HPLC glass vial, and assayed against external standards. The sample injection had the same 2,6-dimethylaniline concentration value as that in Experiment 1.
In Experiment 4, the 2,6-dimethylaniline solution at 3 ng/mL prepared in the red colored glass 100 mL volumetric flask coated with RAY-SORB® was transferred to an amber HPLC vial.

For sucrose acetate isobutyrate [SAIB], in series [1] (linear regression, FIG. 2), the “peroxide in SAIB corresponding to 0.8% bupivacaine N-oxide” value is on record as 232.5 ppm and the “peroxide in SAIB corresponding to 1.0% bupivacaine N-oxide” value is reported as 296.4 ppm. The molecule further came in with an SAIB remaining in series [2] of 98%. The same molecule displayed a Gold content in series [3] (detection limit 0.02) of 0.4 ppm. This molecule also displayed a Tin content in series [3] (detection limit 0.04) of 0.06 ppm. Further, the Iron content in series [3] (detection limit 1) is on record as 2 ppm.

For `Cc1cccc(C)c1N` [2,6-dimethylaniline], the “Observed Concentration of Standard” value in series [4] (Experiment 1: clear flask, clear HPLC vial, nominal 3 ng/mL) is about 3 ng/mL; in series [4] (Experiment 1: clear flask, clear HPLC vial, nominal 3 ng/mL, listed as 2,6-Dimethlylaniline Standard), 3.0 ng/mL and 3.1 ng/mL; in series [4] (Experiment 2: clear flask, amber HPLC vial, listed as 2,6-Dimethlylaniline Standard) it was 24.5 ng/mL and 28.4 ng/mL and 34.6 ng/mL and 38.1 ng/mL; in series [4] (Experiment 3: red RAY-SORB flask, clear HPLC vial), 3.0 ng/mL; in series [4] (Experiment 4: red flask, amber HPLC vial) it was 14.9 ng/mL. Besides, the “2,6-dimethylaniline content, times higher than Experiments 1 and 3” value in series [4] (Experiment 4, amber HPLC vial) is “approximately 5 times”.

`OCc1ccccc1` [benzyl alcohol]: the “effective peroxide contribution to formation of bupivacaine N-oxide” value in series [1] (8.5 ppm divided by 3) is under 2.8 ppm. Besides, the “peroxide content, expressed as hydrogen peroxide” value in series [1] (PV multiplied by 17) is given as under 8.5 ppm. In addition, the “peroxide value (PV)” value in series [1] (all lots used for Formulation A samples) is on record as “less than 0.5”.
